The experiment concerns vasodilatation of the facial skin, induced by electrical ganglion stimulation. Kind of experiment: Facial skin blood flow: vasodilatation of the facial skin induced by electrical trigeminal ganglion stimulation. As to conditions: anaesthetised male Wistar rats, i.v. 5 minutes before the second stimulation, BIBN 4096 Cl 0.03 mg/kg, sumatriptan 1.0 mg/kg, combination (0.03 mg + 1.0 mg)/kg; for % of trigeminus stimulation: first stimulation as control, saline control 82.7 ± 4.4. It is filed as in vivo, rat. On the procedure:
Measurement of the Facial Skin Blood Flow
The facial skin blood flow was measured by a modified method as described by Escott et al. (Escott, K. J., Beattie, D. T., Connor, H. E., Brain, S. D. (1995), Trigeminal ganglion stimulation increases facial skin blood flow in the rat: a major role for calcitonin gene-related peptide, Brain Research, 669(1), 93-99). Fasting male Wistar rats (strain CHbb:THOM, 280-320 g) were anaesthetised with sodium pentobarbitone (initially with 60 mg/kg i.p. and maintained throughout the experiment with an intraperitoneal infusion of 30 mg/kg/h through a 23 G needle using a solution of 10 mg/ml). Both sides of the buccal region of the facial skin were shaved and depilated with a commercially available depilatory cream (Pilca, Schwarzkopf & Henkel, 40551 Düsseldorf, Germany). The trachea was fitted with a cannula, and the animals were artificially ventilated (80 breaths per minute) with ambient air enriched with oxygen. The body temperature was maintained at 37° C. using an automatic heating pad. The left femoral artery and left femoral vein were fitted with cannulas for continuous measurement of the arterial blood pressure or the intravenous administration of test compounds. A neuromuscular blockade was obtained by intravenous administration of pancuronium bromide (1 mg/kg/0.5 ml, 5 minutes before each electrical stimulation). The heart rate was derived from the blood pressure signal. The blood pressure and heart rate were recorded continuously during the course of the experiment in order to assess the level of anaesthesia and monitor the cardiovascular activities of the pharmaceutical compositions used in this study.
The animals were placed in a stereotactic frame, and a longitudinal cut was made in the scalp. A small hole was drilled in the skull (on the left or right) and a bipolar electrode (Rhodes SNEX-100, obtained from David Kopf Instruments, Tujunga, 91042 Calif., USA) was lowered by means of a micromanipulator into the trigeminal ganglion (0.32 cm dorsally of the bregma, ±0.30 cm laterally of the centre line and 0.95 cm below the dural surface). The position of the electrodes in the trigeminal ganglia was checked visually at the end of each experiment after the removal of the brain. […] Microvascular changes in blood flow in the facial skin were measured by laser Doppler flow measurement using a Periflux Laser-Doppler system (PeriFLUX 4001, wavelength: 780 nm; time constant: 3 s; Perimed AB, Järfälla, S-17526, Sweden). […] Changes in blood flow were measured as flow in any desired units and expressed as the area under the flow curve (mm^2) according to Escott et al. (1995). […]

Setting [1] is: Rattus norvegicus, iv, versus saline solution control, read-out: % inhibition compared with the control value.

Broadly, the inhibition is the change of the read-out against control, counted positive when it falls.

For `NCCCC[C@H](NC(=O)[C@@H](Cc1cc(Br)c(O)c(Br)c1)NC(=O)N1CCC(N2Cc3ccccc3NC2=O)CC1)C(=O)N1CCN(c2ccncc2)CC1` [BIBN 4096 Cl, 1-[N^2-[3,5-dibromo-N-[[4-(3,4-dihydro-2(1H)-oxoquinazolin-3-yl)-1-piperidinyl]-carbonyl]-D-tyrosyl]-L-lysyl]-4-(4-pyridinyl)-piperazine], the “% of trigeminus stimulation” value worked out at 60.3 ± 5.1%. The inhibition at 0.03 mg/kg under setting [1] amounted to 27.1%.

As for `CNS(=O)(=O)Cc1ccc2[nH]cc(CCN(C)C)c2c1` [sumatriptan], the “% of trigeminus stimulation” value was determined as 68.8 ± 6.8%. Moreover, the inhibition at 1 mg/kg under setting [1] was found to be 16.8%.

For the origin of these results see patent US20040248816A1, “Treatment of migraine” (Boehringer Ingelheim International GmbH, priority 2003, published 2004).
